Data published in patent US20230002361A1, “2H-INDAZOLE DERIVATIVES AND THEIR USE IN THE TREATMENT OF DISEASE” (BIOGEN MA INC., priority 2019, published 2023).
Where two headings read alike, the source gives them in different places.

What was measured:
[1] = target: T1, MDR1 (P-gp) (Homo sapiens, UniProt P08183); test: MDR1-MDCK assay (efflux ratio); type: in vitro ADME; settings: human, MDCK-MDR1, 1 μM compound, 120 minutes incubation; read-out: MDR1-MDCK Efflux Ratio; (B-A/A-B)
T1 construct: host or cells: MDCK cells
Method: • The assay makes use of human MDR1 transfected MDCK cells (NIH cell line in-licensed from Absorption Systems) • The compounds are tested at 1 μM concentration prepared in transport buffer (Hank's balanced salt solution with HEPES) • MDR1-MDCK cell are cultured for 7 days in 96 well transwell insert plates (Corning). Insert plates are washed before the assay and TEER (Trans epithelial electric resistance) is measured. • These plates are loaded with test compound solution 85 μL for A-B transport and 260 μL for B-A transport in the respective donor compartment.
Mass balance=100×((Vr×Cr^final)+(Vd×Cd^final))/(Vd×CE) • Where: • dCr/dt is the cumulative concentration in the receiver compartment versus time in μM s^−1 • Vr is the volume of the receiver compartment in cm^3 • Vd is the volume of the donor compartment in cm^3 • A is the area of the insert (0.143 cm^2 for 96-well insert) • CE is the estimated experimental concentration (Time=0) of the dosing solution • Cr^final is the concentration of the receiver at the end of the incubation period • Cd^final is the concentration of the donor at the end of the incubation period.

[2] = target: T2, IRAK4 (Homo sapiens, UniProt Q9NWZ3); test: IRAK4 MSD Biochemical Assay (1 mM ATP, 2 h); settings: room temperature
T2 construct: with 0.1 nM IRAK4, 1.6 μM of biotinylated peptide substrate and 10 μM ATP
T2 sequence (Q9NWZ3 1-460): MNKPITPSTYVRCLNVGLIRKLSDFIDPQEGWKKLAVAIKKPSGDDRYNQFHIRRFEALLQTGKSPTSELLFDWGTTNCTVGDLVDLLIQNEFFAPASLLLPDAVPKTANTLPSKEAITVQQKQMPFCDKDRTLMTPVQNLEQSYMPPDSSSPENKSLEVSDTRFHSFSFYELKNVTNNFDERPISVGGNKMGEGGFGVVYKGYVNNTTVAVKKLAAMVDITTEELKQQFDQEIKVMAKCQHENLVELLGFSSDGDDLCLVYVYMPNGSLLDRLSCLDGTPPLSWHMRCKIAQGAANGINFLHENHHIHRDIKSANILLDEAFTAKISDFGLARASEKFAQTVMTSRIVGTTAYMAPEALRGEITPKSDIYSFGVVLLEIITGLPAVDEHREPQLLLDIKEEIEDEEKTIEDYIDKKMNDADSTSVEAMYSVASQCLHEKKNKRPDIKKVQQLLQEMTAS
Method: The 2-hour 10 μM ATP Biochemical Assay employs a MesoScale Detection (MSD) format.
The activity is quenched with 11 μl of 70 mM EDTA, pH 8.
To detect the phosphorylated biotinylated peptide substrate, 30 μl of the quenched reaction mixture is added to equivalent wells of a 384 well streptavidin coated MesoScale plate (Meso Scale Discovery #L21SA-1). After a 1 hour incubation of the plate for 1 hour at room temperature with gentle mixing, the plate wells are washed 3 times with 50 mM Tris, pH 7.5, 150 mM NaCl, 0.02% Tween-20.
A 25 μl volume of 1:500 anti-P-Threonine Rabbit polyclonal Antibody plus 1:500 Goat-anti-Rabbit Sulfo Tag Antibody (Meso Scale Discovery R32AB-1) in 50 mM Tris, pH 7.5, 150 mM NaCl, 0.02% Tween-20 plus 2% BSA is then added to each well. After a 1-hour incubation of the plate for 1 hour at room temperature with gentle mixing, the plate wells are washed, 3 times with 50 mM Tris, pH 7.5, 150 mM NaCl, 0.02% Tween-20. A 40 μl volume of 2×MSD Read Buffer (Meso Scale Discovery R92TC-1) is added to each well, and the plate is read immediately in an MSD Plate Reader (Meso Scale Discovery).
The 2-hour 1 mM ATP IRAK4 Biochemical assay was performed as described above, but with […] IRAK4 and 1 mM ATP.

[3] = read-out: IRAK4 MSD Biochemical Assay (1 mM ATP, 2 h) IC50
[4] = IRAK4 MSD Biochemical Assay (1 mM ATP, 2 h) IC50 (nM)

T1 sequence (P08183 whole entry): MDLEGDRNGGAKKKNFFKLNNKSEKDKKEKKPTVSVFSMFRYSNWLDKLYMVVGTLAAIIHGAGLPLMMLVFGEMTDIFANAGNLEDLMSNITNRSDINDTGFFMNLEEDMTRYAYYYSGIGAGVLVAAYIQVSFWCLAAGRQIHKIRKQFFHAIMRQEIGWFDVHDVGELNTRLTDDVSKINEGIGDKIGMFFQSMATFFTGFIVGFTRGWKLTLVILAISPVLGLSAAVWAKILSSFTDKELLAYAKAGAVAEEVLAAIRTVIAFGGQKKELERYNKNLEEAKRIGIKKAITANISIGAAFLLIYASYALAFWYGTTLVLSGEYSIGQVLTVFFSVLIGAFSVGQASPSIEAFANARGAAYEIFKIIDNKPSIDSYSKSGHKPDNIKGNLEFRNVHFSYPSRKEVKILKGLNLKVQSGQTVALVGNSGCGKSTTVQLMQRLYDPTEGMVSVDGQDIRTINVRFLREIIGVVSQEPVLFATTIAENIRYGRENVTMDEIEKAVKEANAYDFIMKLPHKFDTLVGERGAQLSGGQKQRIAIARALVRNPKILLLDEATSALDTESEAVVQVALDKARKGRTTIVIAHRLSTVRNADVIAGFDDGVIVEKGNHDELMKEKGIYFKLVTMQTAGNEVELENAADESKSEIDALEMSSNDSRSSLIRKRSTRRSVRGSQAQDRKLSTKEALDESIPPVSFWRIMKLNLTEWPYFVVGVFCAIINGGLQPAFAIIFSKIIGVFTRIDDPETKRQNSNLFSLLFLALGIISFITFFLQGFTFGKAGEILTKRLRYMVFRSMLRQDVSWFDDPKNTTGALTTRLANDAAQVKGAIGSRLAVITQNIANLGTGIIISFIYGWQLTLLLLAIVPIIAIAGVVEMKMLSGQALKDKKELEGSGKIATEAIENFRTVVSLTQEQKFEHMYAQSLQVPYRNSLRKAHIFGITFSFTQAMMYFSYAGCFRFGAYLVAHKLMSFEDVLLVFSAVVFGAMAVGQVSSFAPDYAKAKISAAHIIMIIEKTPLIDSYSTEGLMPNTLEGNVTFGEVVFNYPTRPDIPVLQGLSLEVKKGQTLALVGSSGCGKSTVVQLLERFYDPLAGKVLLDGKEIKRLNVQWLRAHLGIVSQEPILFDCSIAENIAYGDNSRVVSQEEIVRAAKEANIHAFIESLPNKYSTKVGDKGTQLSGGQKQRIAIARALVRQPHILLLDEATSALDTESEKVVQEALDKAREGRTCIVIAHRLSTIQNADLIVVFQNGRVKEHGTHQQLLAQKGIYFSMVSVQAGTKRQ

SMILES: COc1cc2nn(C[C@H]3CCOC3)cc2cc1C(=O)Nc1cccc(C(F)F)n1 (single isomer, unassigned) [Example 18]
- efflux ratio at 120 min, 1 μM [1]: 0.9
- IC50 [2, 3]: 7.1 nM

SMILES: COc1cc2nn(C[C@@H]3CCOC3)cc2cc1C(=O)Nc1cccc(C(F)F)n1 (single isomer, unassigned) [Example 19]
- efflux ratio at 120 min, 1 μM [1]: 1
- IC50 [2, 3]: 5.4 nM

SMILES: CC(C)Oc1cc2nn(C[C@H]3CCOC3)cc2cc1C(=O)Nc1cccc(C(F)F)n1 (single isomer, unassigned) [Example 20]
- efflux ratio at 120 min, 1 μM [1]: 0.7
- IC50 [2, 3]: 0.5 nM

SMILES: CC(C)Oc1cc2nn(C[C@@H]3CCOC3)cc2cc1C(=O)Nc1cccc(C(F)F)n1 (single isomer, unassigned) [Example 21]
- efflux ratio at 120 min, 1 μM [1]: 0.7
- IC50 [2, 3]: 0.5 nM

SMILES: COc1cccc(NC(=O)c2cc3cn(C[C@@H]4CCOC4)nc3cc2OC)n1 (single isomer, unassigned) [Example 22]
- efflux ratio at 120 min, 1 μM [1]: 0.6
- IC50 [2, 3]: 9.2 nM

SMILES: COc1cccc(NC(=O)c2cc3cn(C[C@H]4CCOC4)nc3cc2OC)n1 (single isomer, unassigned) [Example 23]
- efflux ratio at 120 min, 1 μM [1]: 0.8
- IC50 [2, 3]: 51.3 nM

SMILES: CC(C)Oc1cc2nn([C@H]3CCCOC3)cc2cc1C(=O)Nc1cccc(C(F)F)n1 (single isomer, unassigned) [Example 42]
- efflux ratio at 120 min, 1 μM [1]: 0.9
- IC50 [2, 3]: 0.4 nM

SMILES: CC(C)Oc1cc2nn([C@@H]3CCCOC3)cc2cc1C(=O)Nc1cccc(C(F)F)n1 (single isomer, unassigned) [Example 43]
- efflux ratio at 120 min, 1 μM [1]: 0.6
- IC50 [2, 3]: 0.2 nM

SMILES: CC(C)Oc1cc2nn([C@H]3CCOC3)cc2cc1C(=O)Nc1cccc(C(F)F)n1 (single isomer, unassigned) [Example 44]
- efflux ratio at 120 min, 1 μM [1]: 0.8
- IC50 [2, 3]: 2.2 nM

SMILES: CC(C)Oc1cc2nn([C@@H]3CCOC3)cc2cc1C(=O)Nc1cccc(C(F)F)n1 (single isomer, unassigned) [Example 45]
- efflux ratio at 120 min, 1 μM [1]: 1
- IC50 [2, 3]: 2.1 nM

SMILES: CC(C)Oc1cc2nn([C@@H]3CCOC(C)(C)C3)cc2cc1C(=O)Nc1cccc(C(F)F)n1 (single isomer, unassigned) [Example 46]
- efflux ratio at 120 min, 1 μM [1]: 1.2
- IC50 [2, 3]: 0.3 nM

SMILES: CC(C)Oc1cc2nn([C@H]3CCOC(C)(C)C3)cc2cc1C(=O)Nc1cccc(C(F)F)n1 (single isomer, unassigned) [Example 47]
- efflux ratio at 120 min, 1 μM [1]: 1.5
- IC50 [2, 3]: 0.2 nM

SMILES: CC(C)Oc1nc2nn(C[C@@H]3CCOC3)cc2cc1C(=O)Nc1cccc2ccnn12 (single isomer, unassigned) [Example 52]
- efflux ratio at 120 min, 1 μM [1]: 1
- IC50 [2, 3]: 1 nM

SMILES: CC(C)Oc1nc2nn(C[C@H]3CCOC3)cc2cc1C(=O)Nc1cccc2ccnn12 (single isomer, unassigned) [Example 53]
- efflux ratio at 120 min, 1 μM [1]: 1
- IC50 [2, 3]: 1.5 nM

SMILES: Cc1cnc2c(NC(=O)c3cc4cn(C[C@H]5CCOC5)nc4nc3OC(C)C)cnn2c1 (single isomer, unassigned) [Example 104]
- efflux ratio at 120 min, 1 μM [1]: 4.8
- IC50 [2, 3]: 0.9 nM

SMILES: Cc1cnc2c(NC(=O)c3cc4cn(C[C@@H]5CCOC5)nc4nc3OC(C)C)cnn2c1 (single isomer, unassigned) [Example 105]
- efflux ratio at 120 min, 1 μM [1]: 4.8
- IC50 [2, 3]: 1.5 nM

SMILES: CC(C)Oc1nc2nn(C[C@H]3CCOC3)cc2cc1C(=O)Nc1cccc(C(F)F)n1 (single isomer, unassigned) [Example 106]
- efflux ratio at 120 min, 1 μM [1]: 0.8
- IC50 [2, 3]: 0.4 nM

SMILES: CC(C)Oc1nc2nn(C[C@@H]3CCOC3)cc2cc1C(=O)Nc1cccc(C(F)F)n1 (single isomer, unassigned) [Example 107]
- efflux ratio at 120 min, 1 μM [1]: 1
- IC50 [2, 3]: 0.3 nM

SMILES: CC(C)Oc1nc2nn(C[C@H]3CCOC3)cc2cc1C(=O)Nc1ccn(C(F)F)n1 (single isomer, unassigned) [Example 110]
- efflux ratio at 120 min, 1 μM [1]: 2.2
- IC50 [2, 3]: 2.8 nM

SMILES: CC(C)Oc1nc2nn(C[C@@H]3CCOC3)cc2cc1C(=O)Nc1ccn(C(F)F)n1 (single isomer, unassigned) [Example 111]
- efflux ratio at 120 min, 1 μM [1]: 2.1
- IC50 [2, 3]: 2.7 nM

SMILES: Cn1cccc(NC(=O)c2cc3cn(C[C@H]4CCOC4)nc3nc2OC2CCC2)c1=O (single isomer, unassigned) [Example 112]
- efflux ratio at 120 min, 1 μM [1]: 8.3
- IC50 [2, 3]: 3.4 nM

SMILES: Cn1cccc(NC(=O)c2cc3cn(C[C@@H]4CCOC4)nc3nc2OC2CCC2)c1=O (single isomer, unassigned) [Example 113]
- efflux ratio at 120 min, 1 μM [1]: 5.3
- IC50 [2, 3]: 2.1 nM

SMILES: Cn1cccc(NC(=O)c2cc3cn(C[C@H]4CCOC4)nc3nc2OC2CCCC2)c1=O (single isomer, unassigned) [Example 114]
- efflux ratio at 120 min, 1 μM [1]: 1.5
- IC50 [2, 3]: 1.8 nM

SMILES: Cn1cccc(NC(=O)c2cc3cn(C[C@@H]4CCOC4)nc3nc2OC2CCCC2)c1=O (single isomer, unassigned) [Example 115]
- efflux ratio at 120 min, 1 μM [1]: 2.3
- IC50 [2, 3]: 1 nM

SMILES: O=C(Nc1ccn(C(F)F)n1)c1cc2cn(C[C@H]3CCOC3)nc2nc1OC1CCCC1 (single isomer, unassigned) [Example 116]
- efflux ratio at 120 min, 1 μM [1]: 2.5
- IC50 [2, 3]: 3.8 nM

SMILES: O=C(Nc1ccn(C(F)F)n1)c1cc2cn(C[C@@H]3CCOC3)nc2nc1OC1CCCC1 (single isomer, unassigned) [Example 117]
- efflux ratio at 120 min, 1 μM [1]: 2.6
- IC50 [2, 3]: 2 nM

SMILES: CC(C)Oc1nc2nn(C[C@H]3CCOC3)cc2cc1C(=O)Nc1cnn2cccnc12 (single isomer, unassigned) [Example 118]
- efflux ratio at 120 min, 1 μM [1]: 3.1
- IC50 [2, 4]: 0.8 nM

SMILES: CC(C)Oc1nc2nn(C[C@@H]3CCOC3)cc2cc1C(=O)Nc1cnn2cccnc12 (single isomer, unassigned) [Example 119]
- efflux ratio at 120 min, 1 μM [1]: 3
- IC50 [2, 4]: 1 nM

SMILES: CC(C)Oc1nc2nn([C@@H]3CCCOC3)cc2cc1C(=O)Nc1cnn2cccnc12 (single isomer, unassigned) [Example 120]
- efflux ratio at 120 min, 1 μM [1]: 0.9
- IC50 [2, 3]: 0.5 nM

SMILES: CC(C)Oc1nc2nn([C@H]3CCCOC3)cc2cc1C(=O)Nc1cnn2cccnc12 (single isomer, unassigned) [Example 121]
- efflux ratio at 120 min, 1 μM [1]: 1.1
- IC50 [2, 3]: 0.7 nM

SMILES: Cc1cnc2c(NC(=O)c3cc4cn(C[C@H]5CCOC5)nc4nc3OC3CCC3)cnn2c1 (single isomer, unassigned) [Example 122]
- efflux ratio at 120 min, 1 μM [1]: 4.2
- IC50 [2, 3]: 0.4 nM

SMILES: Cc1cnc2c(NC(=O)c3cc4cn(C[C@@H]5CCOC5)nc4nc3OC3CCC3)cnn2c1 (single isomer, unassigned) [Example 123]
- efflux ratio at 120 min, 1 μM [1]: 5.9
- IC50 [2, 3]: 0.5 nM

SMILES: Cn1ccc(NC(=O)c2cc3cn(C4CCCOC4)nc3nc2OC2CCC2)n1 (single isomer, unassigned) [Example 130]
- IC50 [2, 3]: 1.7 nM

SMILES: CC(C)Oc1cc2nn(C34COC(C)(C3)C4)cc2cc1C(=O)Nc1cccn(C)c1=O.O=C(O)C(F)(F)F [Example 55, 6-Isopropoxy-N-(1-methyl-2-oxo-1,2-dihydropyridin-3-yl)-2-(1-methyl-2-oxabicyclo[2.1.1]hexan-4-yl)-2H-indazole-5-carboxamide Trifluoroacetate]
- efflux ratio at 120 min, 1 μM [1]: 1.2

SMILES: CC(C)Oc1cc2nn(C34CCC(C)(C3)OC4)cc2cc1C(=O)Nc1cnn2cc(F)cnc12 (stereo not shown) [Example 100, N-(6-fluoropyrazolo[1,5-a]pyrimidin-3-yl)-6-isopropoxy-2-(1-methyl-2-oxabicyclo[2.2.1]heptan-4-yl)-2H-indazole-5-carboxamide]
- IC50 [2, 3]: 1.2 nM
